Experimental data from US4259235A, “Tricyclic nitrogenous compounds having string plant growth regulating properties” (BASF Aktiengesellschaft, priority 1977, dated 1981).

Assays:
spring barley [1] = experiment: Growth height of spring barley, soil treatment, Example 10; assay type: in vivo, spring barley ("Union" variety)
Protocol: (§1) Spring wheat ("Opal" variety) and spring barley ("Union" variety) were grown under greenhouse conditions in plastic dishes 11.5 cm in diameter, in a peat substrate provided with sufficient nutrients. For the soil (preemergence) treatment, the active ingredients were poured, at two application rates, as aqueous formulations onto the surface of the substrate after sowing.
(§2) The plant height was measured at the end of the experiment. The figures obtained show the shortening effect of the active ingredients under investigation. The prior art compound β-chloroethylphosphonic acid (Ethephon, German Printed Application DAS No. 1,667,968) was used for comparison purposes.

grass = experiment: Growth height of, and amount of mowings in, grass, Example 12; assay type: in vivo; conditions: for First mowing, growth height, relative / First mowing, mowings, relative / Second mowing, growth height, relative / Second mowing, mowings, relative: control = 100
Source text: In an experiment in large vessels, lawn seed of the following standard composition was sown in a loamy soil: Agrostis tenuis (10%), Cynosurus cristatus (10%), Festuca rubra (15%), Lolium perenne (35%) and Poa pratensis (30%). 1.5 g of N as ammonium nitrate and 1 g of P2 O5 as secondary potassium phosphate were applied as fertilizer. After the grass had been cut twice, the active ingredients were sprayed in conventional manner at various application rates onto the grass which was 4 cm high. The growth height and the mowings were determined 19 days after the treatment. Compared with the control, the treated plants reacted with most considerable height reductions and a proportionate decrease in mowings.

spring wheat [2] = experiment: Growth height of spring wheat, leaf treatment, Example 10; assay type: in vivo, spring wheat ("Opal" variety)
Protocol: as §1
(§3) Leaf treatment was effected by spraying the plants at a growth height of 10 cm with aqueous formulations of the active ingredients at two application rates.
as §2

spring barley [3] = experiment: Growth height of spring barley, leaf treatment, Example 10; assay type: in vivo, spring barley ("Union" variety)
Protocol: as §1, §3, §2

spring wheat [4] = experiment: Growth height of spring wheat, soil treatment, Example 10; assay type: in vivo, spring wheat ("Opal" variety)
Protocol: as §1, §2

Clc1ccc(C2N=NC3C4CC(C5N=NC45)C23)cc1 (stereo not shown) [drawing 404]
Plant height (spring barley [1]; 3 kg/ha): 22.0 cm
Plant height, % of untreated control (spring barley [1]; 3 kg/ha): 64.1%
Plant height (spring barley [1]; 12 kg/ha): 20.0 cm
Plant height, % of untreated control (spring barley [1]; 12 kg/ha): 58.3%

c1ccc(C2=NOC3C4CC(C5N=NC45)C23)cc1 (stereo not shown) [drawing 424]
First mowing, growth height (grass; 3.0 kg/ha): 20.0 cm
First mowing, mowings (grass; 3.0 kg/ha): 116.3 g
Second mowing, growth height (grass; 3.0 kg/ha): 19.0 cm
Second mowing, mowings (grass; 3.0 kg/ha): 94.8 g
First mowing, growth height, relative (grass; 3.0 kg/ha): 91.7
First mowing, mowings, relative (grass; 3.0 kg/ha): 86.7
Second mowing, growth height, relative (grass; 3.0 kg/ha): 95.0
Second mowing, mowings, relative (grass; 3.0 kg/ha): 104.6
First mowing, growth height (grass; 6.0 kg/ha): 17.0 cm
First mowing, mowings (grass; 6.0 kg/ha): 101.1 g
Second mowing, growth height (grass; 6.0 kg/ha): 16.5 cm
Second mowing, mowings (grass; 6.0 kg/ha): 85.2 g
First mowing, growth height, relative (grass; 6.0 kg/ha): 78.0
First mowing, mowings, relative (grass; 6.0 kg/ha): 75.3
Second mowing, growth height, relative (grass; 6.0 kg/ha): 82.5
Second mowing, mowings, relative (grass; 6.0 kg/ha): 94.0

O=[N+]([O-])c1ccc(C2=NOC3C4CC(C5N=NC45)C23)cc1 (stereo not shown) [drawing 400]
Plant height (spring wheat [2]; 1.5 kg/ha): 29.0 cm
Plant height, % of untreated control (spring wheat [2]; 1.5 kg/ha): 88.4%
Plant height (spring wheat [2]; 6.0 kg/ha): 27.0 cm
Plant height, % of untreated control (spring wheat [2]; 6.0 kg/ha): 82.3%

O=[N+]([O-])c1ccc(C2=NOC3C4CC(C5N=NC45)C23)cc1 (stereo not shown) [drawing 412]
Plant height (spring barley [3]; 1.5 kg/ha): 25.0 cm
Plant height, % of untreated control (spring barley [3]; 1.5 kg/ha): 89.3%
Plant height (spring barley [3]; 6.0 kg/ha): 24.5 cm
Plant height, % of untreated control (spring barley [3]; 6.0 kg/ha): 87.5%

FC(F)(F)c1cccc(NC2C(I)C3CC2C2N=NC32)c1 (stereo not shown) [drawing 403]
Plant height (spring wheat [2]; 1.5 kg/ha): 27.5 cm
Plant height, % of untreated control (spring wheat [2]; 1.5 kg/ha): 83.3%
Plant height (spring wheat [2]; 6.0 kg/ha): 25.5 cm
Plant height, % of untreated control (spring wheat [2]; 6.0 kg/ha): 77.7%

Clc1ccc(C2N=NC3C4CC(C5N=NC45)C23)cc1 (stereo not shown) [drawing 398]
Plant height (spring wheat [2]; 1.5 kg/ha): 23.5 cm
Plant height, % of untreated control (spring wheat [2]; 1.5 kg/ha): 71.6%
Plant height (spring wheat [2]; 6.0 kg/ha): 22.0 cm
Plant height, % of untreated control (spring wheat [2]; 6.0 kg/ha): 67.1%

COc1ccc(C2=NOC3C4CC(C5N=NC45)C23)cc1 (stereo not shown) [drawing 396]
Plant height (spring wheat [4]; 3 kg/ha): 27.0 cm
Plant height, % of untreated control (spring wheat [4]; 3 kg/ha): 84.4%
Plant height (spring wheat [4]; 12 kg/ha): 24.5 cm
Plant height, % of untreated control (spring wheat [4]; 12 kg/ha): 76.6%

Brc1ccc(C2=NOC3C4CC(C5N=NC45)C23)cc1 (stereo not shown) [drawing 405]
Plant height (spring barley [1]; 3 kg/ha): 28.0 cm
Plant height, % of untreated control (spring barley [1]; 3 kg/ha): 81.6%
Plant height (spring barley [1]; 12 kg/ha): 26.0 cm
Plant height, % of untreated control (spring barley [1]; 12 kg/ha): 75.8%

Clc1ccc(C2=NOC3C4CC(C5N=NC45)C23)cc1 (stereo not shown) [drawing 402]
Plant height (spring wheat [2]; 1.5 kg/ha): 29.0 cm
Plant height, % of untreated control (spring wheat [2]; 1.5 kg/ha): 88.4%
Plant height (spring wheat [2]; 6.0 kg/ha): 27.0 cm
Plant height, % of untreated control (spring wheat [2]; 6.0 kg/ha): 82.3%

Clc1ccc(C2=NOC3C4CC(C5N=NC45)C23)cc1 (stereo not shown) [drawing 414]
Plant height (spring barley [3]; 1.5 kg/ha): 26.0 cm
Plant height, % of untreated control (spring barley [3]; 1.5 kg/ha): 92.9%
Plant height (spring barley [3]; 6.0 kg/ha): 24.5 cm
Plant height, % of untreated control (spring barley [3]; 6.0 kg/ha): 87.5%

FC(F)(F)c1cccc(NC2C(I)C3CC2C2N=NC32)c1 (stereo not shown) [drawing 415]
Plant height (spring barley [3]; 1.5 kg/ha): 25.0 cm
Plant height, % of untreated control (spring barley [3]; 1.5 kg/ha): 89.3%
Plant height (spring barley [3]; 6.0 kg/ha): 24.0 cm
Plant height, % of untreated control (spring barley [3]; 6.0 kg/ha): 85.7%

Cc1ccc(C2=NOC3C4CC(C5N=NC45)C23)cc1 (stereo not shown) [drawing 401]
Plant height (spring wheat [2]; 1.5 kg/ha): 29.5 cm
Plant height, % of untreated control (spring wheat [2]; 1.5 kg/ha): 89.9%
Plant height (spring wheat [2]; 6.0 kg/ha): 27.5 cm
Plant height, % of untreated control (spring wheat [2]; 6.0 kg/ha): 83.3%

Clc1ccc(C2N=NC3C4CC(C5N=NC45)C23)cc1 (stereo not shown) [drawing 392]
Plant height (spring wheat [4]; 3 kg/ha): 17.0 cm
Plant height, % of untreated control (spring wheat [4]; 3 kg/ha): 53.1%
Plant height (spring wheat [4]; 12 kg/ha): 14.0 cm
Plant height, % of untreated control (spring wheat [4]; 12 kg/ha): 43.8%
